Results published in PubChem BioAssay AID1963826 (Molecular Pharmacology Branch, DTP, NCI, 2024).

Tested on: 926638-142-R-J1-PDC complex spheroid viability
Experiment: Anticancer human tumor 926638-142-R-J1-PDC patient-derived endometrial carcinoma cell line growth inhibition [POLQ]
Settings: for IC50: curve of first compound; for viability, T/C: stronger effect = lower value
Method in brief: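 PDC + HUVEC + MSC complex spheroids; POLQ inhibitors ± partner drugs; top conc. at/near clinical Cmax, else 10 microM (SN-38 1 microM), half-log dilutions; 37 degrees C, 5% CO2.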
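Further: spheroids exposed to drugs for one week before readout.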
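Wherever viability, T/C is given: percent viability relative to DMSO vehicle control wells set as 100%.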

Molecule CC(=O)O[C@H]1C(=O)[C@@]2(C)[C@H]([C@H](OC(=O)c3ccccc3)[C@]3(O)C[C@H](OC(=O)[C@H](O)[C@@H](NC(=O)c4ccccc4)c4ccccc4)C(C)=C1C3(C)C)[C@]1(OC(C)=O)CO[C@@H]1C[C@@H]2O + Nc1ccc(C#CCN(C(=O)Cc2ncc(C(F)(F)F)cc2C(F)(F)F)c2ccc(F)cc2)nn1 has an IC50 (second compound 0.0316 µM) of 433 nM, an IC50 (second compound 0.1 µM) of 1300 nM and an IC50 (second compound 0.316 µM) of 458 nM. For the same molecule, the IC50 (second compound 1 µM) was greater than 3000 nM, the IC50 (second compound 3.16 µM) was 1940 nM and the IC50 (second compound 10 µM) was 139 nM. It also gave a viability, T/C (second compound 0.0316 µM, first compound 0.00949 µM) of 85.1%, a viability, T/C (second compound 0.0316 µM, first compound 0.03 µM) of 62.4% and a viability, T/C (second compound 0.0316 µM, first compound 0.0949 µM) of 56.9%. It also gave a viability, T/C (second compound 0.0316 µM, first compound 0.3 µM) of 50.7%, a viability, T/C (second compound 0.0316 µM, first compound 0.949 µM) of 47.9% and a viability, T/C (second compound 0.0316 µM, first compound 3 µM) of 48%. The viability, T/C (second compound 0.1 µM, first compound 0.00949 µM) was 84.3%, the viability, T/C (second compound 0.1 µM, first compound 0.03 µM) was 76.3% and the viability, T/C (second compound 0.1 µM, first compound 0.0949 µM) was 58.2%. The viability, T/C (second compound 0.1 µM, first compound 0.3 µM) was 69.8%, the viability, T/C (second compound 0.1 µM, first compound 0.949 µM) was 51% and the viability, T/C (second compound 0.1 µM, first compound 3 µM) was 42.9%. For the same molecule, the viability, T/C (second compound 0.316 µM, first compound 0.00949 µM) was 91.4%, the viability, T/C (second compound 0.316 µM, first compound 0.03 µM) was 72.3% and the viability, T/C (second compound 0.316 µM, first compound 0.0949 µM) was 57.5%. It also gave a viability, T/C (second compound 0.316 µM, first compound 0.3 µM) of 47.7%, a viability, T/C (second compound 0.316 µM, first compound 0.949 µM) of 50.9% and a viability, T/C (second compound 0.316 µM, first compound 3 µM) of 45.2%. The viability, T/C (second compound 1 µM, first compound 0.00949 µM) was 79.3%, the viability, T/C (second compound 1 µM, first compound 0.03 µM) was 71.3% and the viability, T/C (second compound 1 µM, first compound 0.0949 µM) was 57%. For the same molecule, the viability, T/C (second compound 1 µM, first compound 0.3 µM) was 51.8%, the viability, T/C (second compound 1 µM, first compound 0.949 µM) was 50.7% and the viability, T/C (second compound 1 µM, first compound 3 µM) was 50.8%. It also gave a viability, T/C (second compound 3.16 µM, first compound 0.00949 µM) of 82.7%, a viability, T/C (second compound 3.16 µM, first compound 0.03 µM) of 65% and a viability, T/C (second compound 3.16 µM, first compound 0.0949 µM) of 53.6%. The viability, T/C (second compound 3.16 µM, first compound 0.3 µM) was 53.1%, the viability, T/C (second compound 3.16 µM, first compound 0.949 µM) was 52.8% and the viability, T/C (second compound 3.16 µM, first compound 3 µM) was 47.3%. The viability, T/C (second compound 10 µM, first compound 0.00949 µM) was 76.3%, the viability, T/C (second compound 10 µM, first compound 0.03 µM) was 60.7% and the viability, T/C (second compound 10 µM, first compound 0.0949 µM) was 50.4%. It also gave a viability, T/C (second compound 10 µM, first compound 0.3 µM) of 49%, a viability, T/C (second compound 10 µM, first compound 0.949 µM) of 46.9% and a viability, T/C (second compound 10 µM, first compound 3 µM) of 51.8%.

With CCc1cc2c(N3CCc4c(cc(Cn5ccnc5)cc4-c4cn(C)nc4C(F)(F)F)C3=O)ccnc2c(OC)n1 + Nc1ccc(C#CCN(C(=O)Cc2ncc(C(F)(F)F)cc2C(F)(F)F)c2ccc(F)cc2)nn1 the IC50 (second compound 0.0316 µM) was 1060 nM, the IC50 (second compound 0.1 µM) was 879 nM and the IC50 (second compound 0.316 µM) was 713 nM. For the same molecule, the IC50 (second compound 1 µM) was 931 nM, the IC50 (second compound 3.16 µM) was 578 nM and the IC50 (second compound 10 µM) was 757 nM. For the same molecule, the viability, T/C (second compound 0.0316 µM, first compound 0.0316 µM) was 88.5%, the viability, T/C (second compound 0.0316 µM, first compound 0.1 µM) was 73.4% and the viability, T/C (second compound 0.0316 µM, first compound 0.316 µM) was 59.6%. For the same molecule, the viability, T/C (second compound 0.0316 µM, first compound 1 µM) was 54.3%, the viability, T/C (second compound 0.0316 µM, first compound 3.16 µM) was 38.7% and the viability, T/C (second compound 0.0316 µM, first compound 10 µM) was 26.6%. For the same molecule, the viability, T/C (second compound 0.1 µM, first compound 0.0316 µM) was 81.5%, the viability, T/C (second compound 0.1 µM, first compound 0.1 µM) was 77.6% and the viability, T/C (second compound 0.1 µM, first compound 0.316 µM) was 59.8%. The viability, T/C (second compound 0.1 µM, first compound 1 µM) was 49.8%, the viability, T/C (second compound 0.1 µM, first compound 3.16 µM) was 36.8% and the viability, T/C (second compound 0.1 µM, first compound 10 µM) was 29.6%. It also gave a viability, T/C (second compound 0.316 µM, first compound 0.0316 µM) of 88.8%, a viability, T/C (second compound 0.316 µM, first compound 0.1 µM) of 73.4% and a viability, T/C (second compound 0.316 µM, first compound 0.316 µM) of 53.4%. The viability, T/C (second compound 0.316 µM, first compound 1 µM) was 48.1%, the viability, T/C (second compound 0.316 µM, first compound 3.16 µM) was 41.2% and the viability, T/C (second compound 0.316 µM, first compound 10 µM) was 29.4%. The viability, T/C (second compound 1 µM, first compound 0.0316 µM) was 83.7%, the viability, T/C (second compound 1 µM, first compound 0.1 µM) was 67.3% and the viability, T/C (second compound 1 µM, first compound 0.316 µM) was 62.4%. For the same molecule, the viability, T/C (second compound 1 µM, first compound 1 µM) was 45.3%, the viability, T/C (second compound 1 µM, first compound 3.16 µM) was 44.8% and the viability, T/C (second compound 1 µM, first compound 10 µM) was 33.3%. The viability, T/C (second compound 3.16 µM, first compound 0.0316 µM) was 68.3%, the viability, T/C (second compound 3.16 µM, first compound 0.1 µM) was 70.5% and the viability, T/C (second compound 3.16 µM, first compound 0.316 µM) was 58%. It also gave a viability, T/C (second compound 3.16 µM, first compound 1 µM) of 41.7%, a viability, T/C (second compound 3.16 µM, first compound 3.16 µM) of 38.2% and a viability, T/C (second compound 3.16 µM, first compound 10 µM) of 31.7%. It also gave a viability, T/C (second compound 10 µM, first compound 0.0316 µM) of 86.4%, a viability, T/C (second compound 10 µM, first compound 0.1 µM) of 67.2% and a viability, T/C (second compound 10 µM, first compound 0.316 µM) of 59.8%. For the same molecule, the viability, T/C (second compound 10 µM, first compound 1 µM) was 48.5%, the viability, T/C (second compound 10 µM, first compound 3.16 µM) was 37.3% and the viability, T/C (second compound 10 µM, first compound 10 µM) was 32.4%.
